Data as given in patent US7915276B2, “Berberrubine derivatives having antifungal activities” (priority 2006, dated 2011).

Experiments:
human pathogenic fungi = assay: Antifungal activity against human pathogenic fungi (summary statements); assay type: cell-based; conditions: berberrubine, the starting material; strains not specified
Source text: Candida albicans ATCC 10231, Candida lusitaniae ATCC 42720, Candida krusei ATCC 6258, Candida tropicalis ATCC 13803, Candida glabrata ATCC 48435, Candida parapsilosis ATCC 34136, Cryptococcus neoformans ATCC 36556, Aspergillus fumigatus ATCC 16424, Aspergillus flavus ATCC 64025, Aspergillus terreus ATCC 46941 and Mucor ramosissimus ATCC 90286 strains for the MIC (minimum inhibitory concentration) measurement were obtained from ATCC (American Type Culture Collection) in the U.S. The Candida albicans A207(clinical isolate) strain was used by isolating it from the patients.
The determination of MIC was performed according to the NCCLS (National Committee for Clinical Laboratory Standard) method. Each test sample solution was diluted two-fold and inoculated with a fungal suspension to reach a final inoculum size of 5×10^2 to 2.5×10^3 cell/mL. The Cryptococcus neoformans strain was cultured in the RPMI 1640 medium for 72 hours. Other strains were cultured for 48 hours.

[1] = target: T1, chitin synthase 2 of Saccharomyces cerevisiae ECY38-38A(pAS6) (Saccharomyces cerevisiae, UniProt P14180); assay: In vitro enzyme assay for chitin synthase 2 of Saccharomyces cerevisiae (enzyme 2); assay type: biochemical; conditions: relative to polyoxin D (50% inhibitory activity = value 5)
T1 construct: made in house; host or cells: Saccharomyces cerevisiae ECY38-38A (chs1-23 chs2::LEU2 cal1/csd2) carrying plasmid pAS6, grown in galactose medium; 130,000 x g membrane pellet
T1 sequence (P14180 whole entry): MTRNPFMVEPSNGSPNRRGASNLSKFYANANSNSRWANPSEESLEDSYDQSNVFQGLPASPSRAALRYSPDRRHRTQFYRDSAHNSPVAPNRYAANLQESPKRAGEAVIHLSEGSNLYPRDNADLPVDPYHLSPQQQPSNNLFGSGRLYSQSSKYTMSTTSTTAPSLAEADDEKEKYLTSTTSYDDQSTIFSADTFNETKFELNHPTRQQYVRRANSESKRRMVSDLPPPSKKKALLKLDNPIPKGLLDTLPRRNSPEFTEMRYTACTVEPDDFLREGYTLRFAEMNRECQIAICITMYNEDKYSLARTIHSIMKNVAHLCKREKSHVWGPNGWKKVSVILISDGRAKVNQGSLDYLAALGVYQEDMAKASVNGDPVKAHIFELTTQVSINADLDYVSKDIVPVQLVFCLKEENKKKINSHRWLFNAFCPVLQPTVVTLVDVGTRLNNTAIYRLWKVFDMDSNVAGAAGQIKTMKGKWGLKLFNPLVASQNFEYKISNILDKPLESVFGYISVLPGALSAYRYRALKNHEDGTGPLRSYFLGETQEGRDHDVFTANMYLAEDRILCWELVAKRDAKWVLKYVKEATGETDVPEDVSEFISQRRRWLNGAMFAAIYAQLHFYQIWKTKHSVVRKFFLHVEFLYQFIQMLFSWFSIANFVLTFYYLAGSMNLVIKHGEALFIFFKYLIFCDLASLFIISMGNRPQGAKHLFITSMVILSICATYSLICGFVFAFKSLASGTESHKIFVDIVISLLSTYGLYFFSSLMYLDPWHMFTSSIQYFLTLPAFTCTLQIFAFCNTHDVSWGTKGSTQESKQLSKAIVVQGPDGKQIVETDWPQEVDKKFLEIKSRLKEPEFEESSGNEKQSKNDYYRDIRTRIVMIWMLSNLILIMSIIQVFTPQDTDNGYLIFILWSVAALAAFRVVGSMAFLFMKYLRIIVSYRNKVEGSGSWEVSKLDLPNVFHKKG
Outline: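 Values are scores: 5 means 50% inhibition at the same concentration as polyoxin D, lower scores 2- to 16-fold higher concentration, higher scores ½ to ⅛. Radiolabel from 1.1 mM UDP-[14C]-GlcNAc was incorporated into TCA-insoluble chitin over 90 min at 30 °C (pH 7.5 Tris, 2 mM Co2+). The enzyme was a trypsin-activated membrane fraction from CHS2-only S. cerevisiae ECY38-38A(pAS6).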

[2] = test system: Mucor ramosissimus ATCC 90286; assay: In vitro antifungal activity (MIC), NCCLS method; assay type: cell-based; conditions: 48 hours
Outline: (§1)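 Broth MIC by NCCLS two-fold dilution, final inoculum 5×10^2 to 2.5×10^3 cell/mL. Candida and Mucor strains incubated 48 hours.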

[3] = test system: Cryptococcus neoformans ATCC 36556; assay: In vitro antifungal activity (MIC), NCCLS method; assay type: cell-based; conditions: RPMI 1640 medium, 72 hours
Outline: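 Broth microdilution per NCCLS: two-fold serial dilutions of test compound inoculated with fungal suspension at a final 5×10^2 to 2.5×10^3 cell/mL. Strains other than Cryptococcus neoformans were incubated 48 hours before MIC reading.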

[4] = test system: Candida albicans A207 (clinical isolate); assay: In vitro antifungal activity (MIC), NCCLS method; assay type: cell-based; conditions: 48 hours
Outline: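 Test samples were serially diluted two-fold, then inoculated with fungus to a final cell density of 5×10^2 to 2.5×10^3 cell/mL, following the NCCLS method. Plates were cultured for 48 hours and the minimum inhibitory concentration recorded.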

[5] = test system: Aspergillus fumigatus ATCC 16424; assay: In vitro antifungal activity (MIC), NCCLS method; assay type: cell-based; conditions: 48 hours
Outline: (§2)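 MIC read as the lowest concentration inhibiting growth after 48 hours of culture. Setup follows NCCLS: compound diluted two-fold and inoculated at 5×10^2 to 2.5×10^3 cell/mL final.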

Candida krusei ATCC 6258 = assay: In vitro antifungal activity (MIC), NCCLS method; assay type: cell-based; conditions: 48 hours
Outline: as §1

[6] = test system: Candida parapsilosis ATCC 34136; assay: In vitro antifungal activity (MIC), NCCLS method; assay type: cell-based; conditions: Candida parapsilosis ATCC 34136; 48 hours
Outline: as §1

[7] = test system: Candida albicans ATCC 10231; assay: In vitro antifungal activity (MIC), NCCLS method; assay type: cell-based; conditions: 48 hours
Outline: as §1

[8] = test system: Aspergillus terreus ATCC 46941; assay: In vitro antifungal activity (MIC), NCCLS method; assay type: cell-based; conditions: 48 hours
Outline: as §2

[9] = test system: Candida lusitaniae ATCC 42720; assay: In vitro antifungal activity (MIC), NCCLS method; assay type: cell-based; conditions: 48 hours
Outline: as §1

[10] = test system: Candida tropicalis ATCC 13803; assay: In vitro antifungal activity (MIC), NCCLS method; assay type: cell-based; conditions: 48 hours
Outline: as §1

[11] = test system: Candida glabrata ATCC 48435; assay: In vitro antifungal activity (MIC), NCCLS method; assay type: cell-based; conditions: Candida glabrata ATCC 48435; 48 hours
Outline: as §1

[12] = test system: Aspergillus flavus ATCC 64025; assay: In vitro antifungal activity (MIC), NCCLS method; assay type: cell-based; conditions: 48 hours
Outline: as §2

[13] = target: T2, chitin synthase 1 of Candida albicans chs2 Δ chs 3 Δ (Candida albicans, UniProt P23316); assay: In vitro enzyme assay for chitin synthase 1 of Candida albicans (enzyme 1); assay type: biochemical; conditions: relative to polyoxin D (50% inhibitory activity = value 5)
T2 construct: Crude enzyme was prepared using the Candida albicans chs2 Δ chs 3 Δ mutant; endogenous in cells; host or cells: Candida albicans chs2Δ/chs2Δ chs3Δ/chs3Δ mutant; 130,000 x g membrane pellet
T2 sequence (P23316 whole entry, stated change not applied): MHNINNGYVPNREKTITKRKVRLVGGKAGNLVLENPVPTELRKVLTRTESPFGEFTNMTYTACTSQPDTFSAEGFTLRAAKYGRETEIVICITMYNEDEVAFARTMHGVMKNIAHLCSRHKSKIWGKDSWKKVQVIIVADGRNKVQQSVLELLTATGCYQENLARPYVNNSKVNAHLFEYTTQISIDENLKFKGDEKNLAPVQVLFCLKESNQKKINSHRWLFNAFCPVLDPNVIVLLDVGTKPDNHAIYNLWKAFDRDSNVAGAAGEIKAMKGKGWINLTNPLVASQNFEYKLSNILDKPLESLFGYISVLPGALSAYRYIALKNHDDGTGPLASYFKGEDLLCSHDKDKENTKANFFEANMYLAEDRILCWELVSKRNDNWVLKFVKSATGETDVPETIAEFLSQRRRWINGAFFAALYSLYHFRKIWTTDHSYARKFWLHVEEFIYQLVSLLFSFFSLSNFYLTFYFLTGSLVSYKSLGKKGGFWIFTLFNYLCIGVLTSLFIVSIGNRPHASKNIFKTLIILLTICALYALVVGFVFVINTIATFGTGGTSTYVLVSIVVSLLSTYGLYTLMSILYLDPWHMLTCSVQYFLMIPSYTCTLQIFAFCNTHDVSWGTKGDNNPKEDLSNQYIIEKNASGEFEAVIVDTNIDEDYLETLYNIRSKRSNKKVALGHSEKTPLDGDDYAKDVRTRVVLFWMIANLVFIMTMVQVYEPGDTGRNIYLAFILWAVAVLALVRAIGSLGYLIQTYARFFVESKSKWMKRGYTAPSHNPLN
Outline: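 Trypsin-activated crude membrane chitin synthase 1 from C. albicans chs2Δ chs3Δ was incubated 90 min at 30 °C with 1.1 mM UDP-[14C]GlcNAc and 2 mM cobalt acetate in Tris-HCl pH 7.5. Filtered TCA precipitate was counted by scintillation; values are scores 1–8 against polyoxin D (5 = same concentration).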

Compound	MIC (human pathogenic fungi) [µg/mL]	Relative activity Enzyme 2 [1]	MIC (minimum inhibitory concentration) [2] [µg/mL]	MIC (minimum inhibitory concentration) [3] [µg/mL]	MIC (minimum inhibitory concentration) [4] [µg/mL]	MIC (minimum inhibitory concentration) [5] [µg/mL]	MIC (minimum inhibitory concentration) (Candida krusei ATCC 6258) [µg/mL]	MIC (minimum inhibitory concentration) [6] [µg/mL]	MIC (minimum inhibitory concentration) [7] [µg/mL]	MIC (minimum inhibitory concentration) [8] [µg/mL]	MIC (minimum inhibitory concentration) [9] [µg/mL]	MIC (minimum inhibitory concentration) [10] [µg/mL]	MIC (minimum inhibitory concentration) [11] [µg/mL]	MIC (minimum inhibitory concentration) [12] [µg/mL]	Relative activity Enzyme 1 [13]
COc1ccc2cc3[n+](cc2c1O)CCc1cc2c(cc1-3)OCO2 [berberrubine]	256 to 512	–	–	–	–	–	–	–	–	–	–	–	–	–	–
13-(4-Isopropylbenzyl)-9-O-(4-tert-butylbenzyl)berberrubine bromide [Compound No. 25]	–	5 (A compound having the same inhibitory activity as that of polyoxin D at the same concentration was given the value 5)	8	2	1	4	4	8	1	8	4	1	4	8	2 (Compounds having the inhibitory activity at 2-fold, 4-fold, 8-fold and 16-fold higher concentrations than that of polyoxin D were given the values of 4, 3, 2 and 1, respectively)
13-(4-Isopropylbenzyl)-9-O-(3-hydroxypropyl)berberrubine chloride [Compound No. 53]	–	6 (compounds having the inhibitory activity at ½, ¼ and ⅛ lower concentrations than that of polyoxin D were given the values of 6, 7 and 8, respectively)	4	1	0.5	2	1	2	0.5	8	2	0.5	2	8	4 (Compounds having the inhibitory activity at 2-fold, 4-fold, 8-fold and 16-fold higher concentrations than that of polyoxin D were given the values of 4, 3, 2 and 1, respectively)
13-(4-tert-Butylbenzyl)-9-O-(4-tert-butylbenzyl)berberrubine bromide [Compound No. 15]	–	5 (A compound having the same inhibitory activity as that of polyoxin D at the same concentration was given the value 5)	8	2	1	4	4	8	1	8	4	1	4	8	3 (Compounds having the inhibitory activity at 2-fold, 4-fold, 8-fold and 16-fold higher concentrations than that of polyoxin D were given the values of 4, 3, 2 and 1, respectively)
13-(4-Isopropylbenzyl)-9-O-(4-tert-butylbenzyl)berberrubine chloride [Compound No. 57]	–	5 (A compound having the same inhibitory activity as that of polyoxin D at the same concentration was given the value 5)	8	2	1	4	4	8	1	8	4	1	4	8	2 (Compounds having the inhibitory activity at 2-fold, 4-fold, 8-fold and 16-fold higher concentrations than that of polyoxin D were given the values of 4, 3, 2 and 1, respectively)
13-(4-tert-Butylbenzyl)-9-O-(3-hydroxypropyl)berberrubine chloride [Compound No. 43]	–	7 (compounds having the inhibitory activity at ½, ¼ and ⅛ lower concentrations than that of polyoxin D were given the values of 6, 7 and 8, respectively)	4	1	0.5	2	1	2	0.5	8	2	0.5	2	8	4 (Compounds having the inhibitory activity at 2-fold, 4-fold, 8-fold and 16-fold higher concentrations than that of polyoxin D were given the values of 4, 3, 2 and 1, respectively)
13-(4-tert-Butylbenzyl)-9-O-octylberberrubine iodide [Compound No. 10]	–	5 (A compound having the same inhibitory activity as that of polyoxin D at the same concentration was given the value 5)	2	1	0.25	2	1	2	0.25	4	0.5	0.125	2	4	3 (Compounds having the inhibitory activity at 2-fold, 4-fold, 8-fold and 16-fold higher concentrations than that of polyoxin D were given the values of 4, 3, 2 and 1, respectively)
13-(4-tert-Butylbenzyl)-9-O-(3-hydroxypropyl)berberrubine iodide [Compound No. 11]	–	6 (compounds having the inhibitory activity at ½, ¼ and ⅛ lower concentrations than that of polyoxin D were given the values of 6, 7 and 8, respectively)	4	1	0.5	2	1	2	0.5	8	2	0.5	2	8	4 (Compounds having the inhibitory activity at 2-fold, 4-fold, 8-fold and 16-fold higher concentrations than that of polyoxin D were given the values of 4, 3, 2 and 1, respectively)
